From patent US5292737A, “N,N'-bis(sulfonamido)-2-amino-4-iminonaphthalen-1-ones and N,N'-bis(amido)-2-amino-4-iminonaphthalen-1-ones” (Sphinx Pharmaceuticals Corporation, priority 1992, dated 1994)
Like-named read-outs stand apart in the source and are kept apart here.

Experiments:
[1] = molecular target: cAMP dependent protein kinase (PKA); assay: cAMP Dependent Protein Kinase (PKA) Assay; format: biochemical; settings: for IC50: catalytic subunit of PKA; for effect on PKA activity: result in words
Method: Compounds found to be inhibitors of protein kinase C were tested for inhibitory activity against cAMP dependent protein kinase (PKA). This enzyme, like protein kinase C, plays an important role in cell-cell communication and is activated by a second messenger, cAMP. Secondary screening against PKA is useful for ascertaining the selectivity of the compounds of the invention.
The catalytic subunit of PKA (Sigma Chemical Company, St. Louis, Mo.) was mixed with buffer before addition of the inhibitor in dimethylsulfoxide (DMSO). Potential inhibitor compounds were added to the assay in dimethylsulfoxide at two concentrations to give final inhibitor concentrations of 30 and 150 μM, respectively. The assay was started by the addition of ^32 P-ATP and the reaction was allowed to proceed for 10 min before stopping with 25% trichloroacetic acid (TCA) and 1.0 mg/ml bovine serum albumin (BSA). Phosphorylated protein was then isolated by filtration and the radioactivity was counted by a beta scintillation counter.

[2] = tested on: human neutrophils; assay: Neutrophil Superoxide Anion (O2) Release Assay, PMA-stimulated; format: cell-based; settings: PMA-stimulated human neutrophils, read-out: Neutrophil Superoxide Release IC50
Source text: Phorbol-12,13-myristate acetate (PMA) stimulates O2 production in human neutrophils which in turn reduces cytochrome C. Reducing cytochrome C increases absorbance and the change in optical density (OD) is proportional to the amount of O2 produced by PMA stimulation. Inhibition is expressed as an IC50 value and is the amount of test compound that will inhibit fifty percent of the PMA-stimulated respiratory outburst, i.e. O2^31 production (Lherer et al. (1981) J. Clinical lnvest. 68:1314; Roberts et al. (1982) J. Immunological Methods 49:193).
Human donor blood in 0.38% Sodium Citrate was centrifuged for 10 minutes at 160 ×g at room temperature. Platelet-rich plasma was removed leaving the buffy coat and the red cell-enriched fraction. Saline with 0.38% Sodium Citrate was added to this fraction up to the original blood volume. The enriched blood sample was diluted 1:1 (v:v) with 3% dextran T500 (Pharmacia) in normal saline and placed in a 60 cc syringe, inverted over a beaker and allowed to settle 30 minutes at room temperature.
Leukocyte-enriched plasma was removed from the syringe, placed into 50 ml polypropylene conical centrifuge tubes and underlaid with 15-20 ml Lymphocyte Separation Medium (LSM Organon Technica). The tubes were centrifuged for 40 minutes at 500×g at room temperature. The plasma, buffy coat and LSM were aspirated off the pellets which contained red blood cells and neutrophils.
The pellets were vortexed and 10 ml ice-cold 0.2% NaCl was added to lyse the red blood cells while vortexing again for 10 seconds. Ice-cold 1.6% NaCl was added while vortexing for 10 seconds. The cells were combined from multiple tubes, centrifuged 10 min at 400×g at 4° C. This red cell lysis was repeated and the resulting neutrophil pellet was washed once in Reaction HBSS (GIBCO, HBSS with Ca^++ and Mg^++,.238% HEPES, 0.1% dextrose, 0.1% RIA grade bovine serum albumin, PH 7.2). The cells were resuspended in 1/5 the original blood volume with Reaction HBSS, counted and adjusted to 4.0×10^6 cells/ml at 4° C.
Duplicate samples of neutrophils were tested in 12×75 mm polypropylene tubes containing 0.25 ml of the neutrophil suspension. Cytochrome C mix (0.25 ml, 6.0 mg/ml cytochrome C type IV (Sigma) plus 1200 U/ml bovine liver catalase (Sigma) in Reaction HBSS described above) was added. PMA was added at 2×the final concentration in 0.5 ml of Reaction HBSS. PMA final test concentration were 0.0, 0.3, 9.0, 27.0, and 81.0 ng/ml. The tubes were vortexed and incubated for 10 minutes at 37° C. with shaking. After chilling for 5 minutes at 4° C. and centrifuging for 10 minutes at 4° C., 550×g, 0.5 ml of supernatant was removed from each tube. Normal saline (0.5 ml) was added to each 0.5 ml sample of supernatant and the absorbance of each sample was read at 550 nm on a spectrophotometer (Shimadzu). The PMA concentration which gives nearly maximal stimulation of superoxide release was determined.
The test samples of neutrophils were prepared as in the PMA dose response through addition of cytochrome C mix. Then 0.4 ml of Reaction HBSS as a control or test agent at 2.5×final test concentration was added and the tubes were vortexed and incubated for 30 minutes at 37° C. with shaking. PMA (0.1 ml) was added at a 10× concentration of the final concentration determined above. The samples were incubated for 10 minutes at 37° C. with shaking, chilled for 5 minutes at 4° C., and then centrifuged for 5 minutes at 550×g at 4° C. The supernatant (0.5 ml) was diluted with 0.5 ml normal saline as above and the absorbance was then determined at 550 nm. The percent change was calculated as follows: [formula] D-sphingosine (Sigma) used as reference standard.
Human neutrophils were first isolated according to Lherer et al. ((1981) J. Clinical Invest. 68:1314) and then tested for stimulation of superoxide anion release with phorbol--12,13-myristate acetate (PMA) in a dose-dependent manner. […]

[3] = tested on: normal human epidermal keratinocyte (NHEK) cells; assay: Human Keratinocyte Inhibition (3H TdR Assay); format: cell-based; settings: 24 h incubation, 3H-thymidine
Method: Proliferating normal human epidermal keratinocyte (NHEK) cells were obtained in the second passage and grown in keratinocyte growth medium, KGM (Clonetics, Inc.) at 37° C., 5% CO2. The cells were trypsinized (0.25%), centrifuged, counted with a hemocytometer, and seeded at a concentration of 5000 cells in 100 μl well in a 96-well microtiter plate.
After the cells were allowed to attach to the microtiter plate overnight, test agents were titrated to determine the dose response. This was done by adding each test agent dilution in quadruplicate to the plate at 2× final concentration in 100 μl to bring the total volume of each well to 200 μl. Culture media with no test agent added was used as a normal control. Duplicate sets of plates were established.
After twenty-four hours of incubation with test compounds 37° C. and 5% CO2, […] of 0.01 mCi/ml tritiated thymidine (New England Nuclear) was added to each well and allowed to incubate for another 4 hours under the same conditions.
Supernatant was aspirated and discarded and […] of 0.05% trypsin (Gibco) was added to each cell. Cells were checked microscopically to determine detachment from surfaces and then harvested onto glass filters. The filters were then placed in vials to which scintillant was added and counted for one minute each in a scintillation counter.
Determine mean cpm of wells containing test agent (n=4) or KGM control (n=16). Calculate % of control by the formula: [formula]
The IC50, or connection necessary to inhibit 50% of control, of each test agent was determined by plotting % control vs log concentration for each dilution and then linear forecasting the 50% control value onto the X axis on a Quatro Pro computer program. Only regression values with a correlation coefficient greater than 0.9 were considered acceptable.

| SMILES | IC50 [1] | IC50 ([2]; Homo sapiens, Neutrophil) | IC50 ([3]; Homo sapiens) | effect on PKA activity [1] | IC50 [2] | IC50 [3] |
| --- | --- | --- | --- | --- | --- | --- |
| Cc1nnc(NS(=O)(=O)c2ccc(N=C3C=C(Nc4ccc(S(=O)(=O)Nc5nnc(C)s5)cc4)C(=O)c4ccccc43)cc2)s1 [Compound 3e] | 55 µM | 8.38 µM | 8.7 µM | – | – | – |
| O=C1C(Nc2ccc(S(=O)(=O)Nc3ccccn3)cc2)=CC(=Nc2ccc(S(=O)(=O)Nc3ccccn3)cc2)c2ccccc21 [Compound 6i] | > 150 µM | – | – | did not effect on PKA activity | 0.11 µM | 7.3 µM |
| O=C1C(Nc2ccc(S(=O)(=O)Nc3ccc(Cl)nn3)cc2)=CC(=Nc2ccc(S(=O)(=O)Nc3ccc(Cl)nn3)cc2)c2ccccc21 [Compound 3l] | 98 µM | – | 4.3 µM | – | 0.9 µM | – |
| Cc1cc(C)nc(NC(=O)c2ccc(N=C3C=C(Nc4ccc(C(=O)Nc5nc(C)cc(C)n5)cc4)C(=O)c4ccccc43)cc2)n1 [Compound 3ai] | > 150 µM | 4.02 µM | 0.16 µM | did not effect on PKA activity | – | – |
| Cc1cc(C)nc(NS(=O)(=O)c2ccc(N=C3C=C(Nc4ccc(S(=O)(=O)Nc5nc(C)cc(C)n5)cc4)C(=O)c4ccccc43)cc2)n1 [Compound 3c] | > 150 µM | – | – | did not effect on PKA activity | 0.77 µM | 0.52 µM |
| O=C1C(Nc2ccc(S(=O)(=O)Nc3cnc4ccccc4n3)cc2)=CC(=Nc2ccc(S(=O)(=O)Nc3cnc4ccccc4n3)cc2)c2ccccc21 [Compound 3m] | 82 µM | 1.31 µM | 0.4 µM | – | – | – |
| Cc1ccnc(NS(=O)(=O)c2ccc(N=C3C=C(Nc4ccc(S(=O)(=O)Nc5nccc(C)n5)cc4)C(=O)c4ccccc43)cc2)n1 [Compound 6f] | 46 µM | – | – | – | 2.11 µM | 1.4 µM |
| COc1cc(NS(=O)(=O)c2ccc(N=C3C=C(Nc4ccc(S(=O)(=O)Nc5cc(OC)nc(OC)n5)cc4)C(=O)c4ccccc43)cc2)nc(OC)n1 [Compound 3g] | > 150 µM | – | – | did not effect on PKA activity | 2.75 µM | 0.6 µM |
| O=C1C(Nc2ccc(S(=O)(=O)Nc3cnc4ccccc4n3)cc2)=CC(=Nc2ccc(S(=O)(=O)Nc3cnc4ccccc4n3)cc2)c2ccccc21 [Compound 6m] | 145 µM | – | – | – | 1.39 µM | < 0.39 µM |
| O=C1C(Nc2ccc(S(=O)(=O)Nc3ccccn3)cc2)=CC(=Nc2ccc(S(=O)(=O)Nc3ccccn3)cc2)c2ccccc21 [Compound 3i] | > 150 µM | 0.1 µM | – | did not effect on PKA activity | – | 0.61 µM |
| Cc1cc(C)nc(NC(=O)c2ccc(N=C3C=C(Nc4ccc(C(=O)Nc5cc(C)cc(C)n5)cc4)C(=O)c4ccccc43)cc2)c1 [Compound 3ah] | – | 8.97 µM | 1.4 µM | – | – | – |
| Cc1cc(NS(=O)(=O)c2ccc(N=C3C=C(Nc4ccc(S(=O)(=O)Nc5cc(C)on5)cc4)C(=O)c4ccccc43)cc2)no1 [Compound 6a] | 157 µM | – | – | – | 8 µM | 1.2 µM |
| COc1cc(NS(=O)(=O)c2ccc(N=C3C=C(Nc4ccc(S(=O)(=O)Nc5cc(OC)cc(OC)c5)cc4)C(=O)c4ccccc43)cc2)cc(OC)c1 [Compound 6af] | – | – | – | – | 0.07 µM | – |
| COc1cnc(NS(=O)(=O)c2ccc(N=C3C=C(Nc4ccc(S(=O)(=O)Nc5ncc(OC)cn5)cc4)C(=O)c4ccccc43)cc2)nc1 [Compound 6h] | > 150 µM | – | – | did not effect on PKA activity | 2.4 µM | 1.2 µM |
| O=C1C(Nc2ccc(S(=O)(=O)NCc3ccccn3)cc2)=CC(=Nc2ccc(S(=O)(=O)NCc3ccccn3)cc2)c2ccccc21 [Compound 3n] | > 150 µM | – | – | did not effect on PKA activity | 0.22 µM | 1.1 µM |
| COc1cc(NS(=O)(=O)c2ccc(N=C3C=C(Nc4ccc(S(=O)(=O)Nc5cc(OC)cc(OC)c5)cc4)C(=O)c4ccccc43)cc2)cc(OC)c1 [Compound 3af] | 62 µM | 0.06 µM | < 0.39 µM | – | – | – |
| Cc1noc(NS(=O)(=O)c2ccc(N=C3C=C(Nc4ccc(S(=O)(=O)Nc5onc(C)c5C)cc4)C(=O)c4ccccc43)cc2)c1C [Compound 3b] | > 150 µM | 7.6 µM | 11.6 µM | did not effect on PKA activity | – | – |
| O=C1C(Nc2ccc(S(=O)(=O)NCc3ccccn3)cc2)=CC(=Nc2ccc(S(=O)(=O)NCc3ccccn3)cc2)c2ccccc21 [Compound 6n] | > 150 µM | – | – | did not effect on PKA activity | 0.1 µM | 0.5 µM |
| COc1cc(NS(=O)(=O)c2ccc(N=C3C=C(Nc4ccc(S(=O)(=O)Nc5cc(OC)nc(OC)n5)cc4)C(=O)c4ccccc43)cc2)nc(OC)n1 [Compound 6g] | 47 µM | – | – | – | 1.34 µM | 1.4 µM |
| Cc1cc(NS(=O)(=O)c2ccc(N=C3C=C(Nc4ccc(S(=O)(=O)Nc5cc(C)nc(C)n5)cc4)C(=O)c4ccccc43)cc2)nc(C)n1 [Compound 3d] | > 150 µM | 5.85 µM | 2 µM | did not effect on PKA activity | – | – |
| Cc1cc(C)nc(NS(=O)(=O)c2cccc(N=C3C=C(Nc4cccc(S(=O)(=O)Nc5cc(C)cc(C)n5)c4)C(=O)c4ccccc43)c2)c1 [Compound 3ae] | > 150 µM | 0.04 µM | < 0.39 µM | did not effect on PKA activity | – | – |
| Cc1cc(C)nc(NS(=O)(=O)c2cc(N=C3C=C(Nc4ccc(C)c(S(=O)(=O)Nc5cc(C)cc(C)n5)c4)C(=O)c4ccccc43)ccc2C)c1 [Compound 3ag] | > 150 µM | 0.04 µM | – | did not effect on PKA activity | – | – |
